The target in the experiment is human LPA1 receptor (Homo sapiens (Human), UniProt Q92633). Kind of experiment: Beta-arrestin recruitment assay to determine IC50 values for human LPAR1. The format is cell-based. As to conditions: antagonist mode, Tango EDG2-bla U2OS cells, LPA 18:1 500 nM final. The procedure, abridged: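 Tango EDG2-bla U2OS cells: LPA-driven beta-arrestin/TEV protease recruitment releases Gal4-VP16, inducing beta-lactamase reporter read with live-cell substrate. Cells seeded 20 h at 37 °C beforehand. IC50 is antagonist concentration inhibiting 50% of maximal response.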
Sequence of human LPA1 receptor (Q92633 whole entry, the tested form may be a part): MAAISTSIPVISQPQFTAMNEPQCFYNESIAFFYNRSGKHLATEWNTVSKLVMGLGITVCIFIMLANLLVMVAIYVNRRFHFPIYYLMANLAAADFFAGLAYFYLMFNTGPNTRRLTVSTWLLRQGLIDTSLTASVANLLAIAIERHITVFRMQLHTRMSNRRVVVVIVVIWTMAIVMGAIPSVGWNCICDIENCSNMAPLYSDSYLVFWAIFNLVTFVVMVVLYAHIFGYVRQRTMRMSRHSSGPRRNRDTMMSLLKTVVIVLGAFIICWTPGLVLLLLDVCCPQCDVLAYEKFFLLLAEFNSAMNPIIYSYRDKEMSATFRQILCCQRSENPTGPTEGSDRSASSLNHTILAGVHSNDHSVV
(In general: Activated receptors often draw arrestin, which recruitment assays turn into a signal.)

Usually IC50 stands for the concentration at which inhibition is half-maximal.

Turning to `Cc1ccc(NC(=O)C2(c3ccccc3C3CCCC3)CN(C(=O)CC(C)(C)C(=O)O)C2)c(OC(F)F)n1` [Ex 31-3, 4-(3-(2-cyclopentylphenyl)-3-((2-(difluoromethoxy)-6-methylpyridin-3-yl)carbamoyl)azetidin-1-yl)-2,2-dimethyl-4-oxobutanoic acid], half-maximal inhibition (IC50) was put at 5 nM. For `Cc1ccc(NC(=O)C2(c3ccccc3C3=CCCC3)CN(C(=O)CC(C)(C)C(=O)O)C2)c(OC(F)F)n1` [Ex 31-4, 4-(3-(2-(cyclopent-1-en-1-yl)phenyl)-3-((2-(difluoromethoxy)-6-methylpyridin-3-yl)carbamoyl)azetidin-1-yl)-2,2-dimethyl-4-oxobutanoic acid] the value was 89 nM; for `Cc1ccc(NC(=O)C2(c3ccccc3C3CCCCC3)CN(C(=O)CC(C)(C)C(=O)O)C2)c(OC(F)F)n1` [Ex 31-5, 4-(3-(2-cyclohexylphenyl)-3-((2-(difluoromethoxy)-6-methylpyridin-3-yl)carbamoyl)azetidin-1-yl)-2,2-dimethyl-4-oxobutanoic acid], 14 nM. For `Cc1ccc(NC(=O)C2(c3ccccc3C3CCOCC3)CN(C(=O)CC(C)(C)C(=O)O)C2)c(OC(F)F)n1` [Ex 31-6, 4-(3-((2-(difluoromethoxy)-6-methylpyridin-3-yl)carbamoyl)-3-(2-(tetrahydro-2H-pyran-4-yl)phenyl)azetidin-1-yl)-2,2-dimethyl-4-oxobutanoic acid] the value was 185 nM; for `CCCc1ccccc1C1(C(=O)Nc2ccc(C)nc2OC(F)F)CN(C(=O)CC(C)(C)C(=O)O)C1` [Ex 31-7, 4-(3-((2-(difluoromethoxy)-6-methylpyridin-3-yl)carbamoyl)-3-(2-propylphenyl)azetidin-1-yl)-2,2-dimethyl-4-oxobutanoic acid], 8 nM; for `Cc1ccc(NC(=O)C2(c3ccccc3C3CCOCC3)CN(c3nc(C(=O)O)co3)C2)c(OC(F)F)n1` [Ex 32, 2-(3-((2-(difluoromethoxy)-6-methylpyridin-3-yl)carbamoyl)-3-(2-(tetrahydro-2H-pyran-4-yl)phenyl)azetidin-1-yl)oxazole-4-carboxylic acid], 447 nM. Under `Cc1ccc(NC(=O)C2(c3c(C)cccc3C(C)C)CNC2)c(OC(F)F)n1` [Ex 33, N-(2-(difluoromethoxy)-6-methylpyridin-3-yl)-3-(2-isopropyl-6-methylphenyl)azetidine-3-carboxamide] stands 33 nM.

`Cc1ccc(C(C)C)c(C2(C(=O)Nc3ccc(C)nc3OC(F)F)CNC2)c1` [Ex 34, N-(2-(difluoromethoxy)-6-methylpyridin-3-yl)-3-(2-isopropyl-5-methylphenyl)azetidine-3-carboxamide] came in with a half-inhibitory concentration (IC50) of 142 nM. On to `Cc1ccc(C2(C(=O)Nc3ccc(C)nc3OC(F)F)CNC2)c(C(C)C)c1` [Ex 35, N-(2-(difluoromethoxy)-6-methylpyridin-3-yl)-3-(2-isopropyl-4-methylphenyl)azetidine-3-carboxamide], for which the IC50 is 75 nM. The compound `Cc1ccc(NC(=O)C2(c3c(F)cccc3C(C)C)CNC2)c(OC(F)F)n1` [Ex 36, N-(2-(difluoromethoxy)-6-methylpyridin-3-yl)-3-(2-fluoro-6-isopropylphenyl)azetidine-3-carboxamide] displayed an IC50 of 8 nM. This IC50 lies about 9.4-fold lower than the previous one. For `Cc1ccc(NC(=O)C2(c3cc(F)ccc3C(C)C)CNC2)c(OC(F)F)n1` [Ex 37, N-(2-(difluoromethoxy)-6-methylpyridin-3-yl)-3-(5-fluoro-2-isopropylphenyl)azetidine-3-carboxamide] the value was 112 nM. Under `COc1ccc(C(C)C)c(C2(C(=O)Nc3ccc(C)nc3OC(F)F)CNC2)c1` [Ex 38, N-(2-(difluoromethoxy)-6-methylpyridin-3-yl)-3-(2-isopropyl-5-methoxyphenyl)azetidine-3-carboxamide] stands 287 nM.

Source of the values: US12344597B2, “Alkoxy-substituted pyridinyl derivatives as LPA1 receptor antagonists and their use in the treatment of fibrosis” (IDORSIA PHARMACEUTICALS LTD, priority 2018, dated 2025).
